We go through 45 compounds from ChEMBL document CHEMBL5260826, “Enzyme inhibitory activities an insight into the structure-Activity relationship of biscoumarin derivatives” (Eur J Med Chem, 2017).

In brackets after ≈: the same amount, converted by molar mass.

The first test deals with T1, Alpha-glucosidase (Saccharomyces cerevisiae S288c, UniProt P53341+P38158+P07265). Nature of the test: Inhibition of Saccharomyces cerevisiae alpha-glucosidase using pNPG as substrate incubated for 30 mins by microplate reader analysis. The class given is protein assay.
In the case of `O=c1ccc2ccc(O)c(-c3c(O[C@@H]4OC(CO)[C@@H](O)C(O)C4O)ccc4ccc(=O)oc34)c2o1` (some centres not stated), the IC50 (commonly the concentration that gives 50% inhibition) is 760 µg/mL (≈ 1570 µM).

In turn, `COc1cc2c(O)c(Oc3cc(O[C@@H]4O[C@H](CO)[C@@H](O)[C@H](O)[C@H]4O[C@@H]4O[C@H](CO)[C@@H](O)[C@H](O)[C@H]4O)c4ccc(=O)oc4c3)c(=O)oc2cc1O` returned an IC50 of 231 µg/mL (≈ 326 µM). With `COc1cc2cc(Oc3ccc4ccc(=O)oc4c3)c(=O)oc2cc1O` [DAPHNORETIN], the IC50 came out at 86 µg/mL (≈ 244 µM).

`O=c1ccc2ccc(Oc3cc4cc(O)c(O)cc4oc3=O)cc2o1` [EDGEWORTHIN] registered an IC50 of 49.6 µg/mL (≈ 147 µM).

Test system in another test: not listed separately
Nature of the test: Inhibition of urease (unknown origin).
The compound `O=c1oc2ccccc2c(O)c1C(c1c(O)c2ccccc2oc1=O)c1c[nH]c2ccccc12` gave an IC50 of 48.4 µM. The compound `O=c1oc2ccccc2c(O)c1C(c1cccnc1)c1c(O)c2ccccc2oc1=O` returned an IC50 of 35 µM. Regarding `O=c1oc2ccccc2c(O)c1C(c1ccc[nH]1)c1c(O)c2ccccc2oc1=O`, the IC50 came to 46.1 µM. Turning to `C/C=C/C(c1c(O)c2ccccc2oc1=O)c1c(O)c2ccccc2oc1=O`, the IC50 stood at 42.9 µM. On the same count and under the same terms, with `O=c1oc2ccccc2c(O)c1Cc1c(O)c2ccccc2oc1=O` [DICUMAROL] the figure was 15 µM.

Target in the next test: not listed separately
Nature of the test: Inhibition of porcine pancreas alpha-amylase using CNP-G3 as substrate preincubated for 10 mins followed by substrate addition and measured after 30 mins by microplate reader analysis. Set-up: species or system Sus scrofa.
For the compound `COc1cc2cc(Oc3ccc4ccc(=O)oc4c3)c(=O)oc2cc1O` [DAPHNORETIN], the IC50 turned out to be 90 µg/mL (≈ 255 µM).

The target in the next test is T2, Hepatocyte growth factor receptor (Homo sapiens, UniProt P08581). Nature of the test: Inhibition of c-Met (unknown origin) using poly (Glu,Tyr) at 4:1 ratio as substrate incubated for 60 mins by ELISA. (In general: ELISA stands for enzyme-linked immunosorbent assay.)
T2 sequence (P08581 whole entry): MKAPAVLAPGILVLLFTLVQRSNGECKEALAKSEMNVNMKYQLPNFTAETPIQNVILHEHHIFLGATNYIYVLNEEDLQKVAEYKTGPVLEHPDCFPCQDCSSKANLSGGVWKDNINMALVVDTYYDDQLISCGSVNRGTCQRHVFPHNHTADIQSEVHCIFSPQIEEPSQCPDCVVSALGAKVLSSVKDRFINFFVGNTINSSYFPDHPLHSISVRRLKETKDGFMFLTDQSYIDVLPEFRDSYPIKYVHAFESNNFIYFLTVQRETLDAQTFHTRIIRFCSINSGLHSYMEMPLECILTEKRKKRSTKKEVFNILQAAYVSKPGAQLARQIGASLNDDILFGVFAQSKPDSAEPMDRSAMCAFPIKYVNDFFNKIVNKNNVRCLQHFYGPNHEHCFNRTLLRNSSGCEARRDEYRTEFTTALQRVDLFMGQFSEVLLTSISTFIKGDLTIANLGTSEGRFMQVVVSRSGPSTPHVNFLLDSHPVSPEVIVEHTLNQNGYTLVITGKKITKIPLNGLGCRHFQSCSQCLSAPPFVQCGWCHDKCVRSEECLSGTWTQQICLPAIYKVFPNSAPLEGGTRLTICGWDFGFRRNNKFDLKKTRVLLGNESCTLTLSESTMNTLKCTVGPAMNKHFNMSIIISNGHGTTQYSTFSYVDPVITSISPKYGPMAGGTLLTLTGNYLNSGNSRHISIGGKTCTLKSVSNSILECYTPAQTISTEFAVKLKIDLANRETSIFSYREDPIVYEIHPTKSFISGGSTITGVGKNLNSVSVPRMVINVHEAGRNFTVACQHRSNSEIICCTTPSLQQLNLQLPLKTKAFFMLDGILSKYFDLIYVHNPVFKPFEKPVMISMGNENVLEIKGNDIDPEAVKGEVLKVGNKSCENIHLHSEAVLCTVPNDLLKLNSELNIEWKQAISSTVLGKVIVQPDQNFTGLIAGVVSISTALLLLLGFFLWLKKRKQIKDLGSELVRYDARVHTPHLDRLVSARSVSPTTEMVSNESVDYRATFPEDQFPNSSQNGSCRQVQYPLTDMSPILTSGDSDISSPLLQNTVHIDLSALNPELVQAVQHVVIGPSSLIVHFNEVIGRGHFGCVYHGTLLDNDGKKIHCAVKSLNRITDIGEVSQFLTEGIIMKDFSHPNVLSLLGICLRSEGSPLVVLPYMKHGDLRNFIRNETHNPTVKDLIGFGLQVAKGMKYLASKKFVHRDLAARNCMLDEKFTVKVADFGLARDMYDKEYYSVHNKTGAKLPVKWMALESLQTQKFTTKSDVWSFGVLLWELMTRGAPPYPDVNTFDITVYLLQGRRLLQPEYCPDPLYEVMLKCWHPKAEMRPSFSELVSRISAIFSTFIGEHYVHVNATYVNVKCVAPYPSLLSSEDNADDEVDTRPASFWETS
Take `CCCCCCC(NC(=O)c1cc2ccc(O)c(O)c2oc1=O)C(=O)Nc1cc2ccc(O)c(O)c2oc1=O` (configuration not stated): the IC50 was determined as 0.03 µM. For the compound `CC(C)CC(NC(=O)c1cc2ccc(O)c(O)c2oc1=O)C(=O)Nc1cc2ccc(O)c(O)c2oc1=O` (configuration not stated), the IC50 is 0.107 µM.

Target in the next test: not listed separately
Nature of the test: Inhibition of HIV-1 wild-type integrase using U5A/U5B-2 labeled double-stranded DNA as substrate by beta radiation counter analysis. Further details: species or system Human immunodeficiency virus 1.
In turn, `O=C(Oc1ccc(C(c2c(O)c3ccccc3oc2=O)c2c(O)c3ccccc3oc2=O)cc1)c1ccc(C(c2c(O)c3ccccc3oc2=O)c2c(O)c3ccccc3oc2=O)cc1` had an IC50 of 0.49 µM. The compound `CC(=O)Oc1ccc(/C=C/C(=O)Oc2ccc(C(c3c(O)c4ccccc4oc3=O)c3c(O)c4ccccc4oc3=O)cc2)cc1OC(C)=O` came in with an IC50 of 2.6 µM. With `O=C(CCCCC1CCSS1)Oc1ccc(C(c2c(O)c3ccccc3oc2=O)c2c(O)c3ccccc3oc2=O)cc1` (configuration not stated), 2.3 µM corresponded to half-maximal inhibition (IC50). On the same count and under the same terms, with `Cc1ccc(C(=O)OCCN(CCOC(=O)c2ccc(C)cc2)c2ccc(C(c3c(O)c4ccccc4oc3=O)c3c(O)c4ccccc4oc3=O)cc2)cc1` the figure was 1.8 µM; with `O=C(Oc1ccc(C(c2c(O)c3ccccc3oc2=O)c2c(O)c3ccccc3oc2=O)cc1)c1ccccc1O`, 10 µM; with `O=C(Oc1ccc(C(c2c(O)c3ccccc3oc2=O)c2c(O)c3ccccc3oc2=O)cc1)c1ccc(O)cc1O`, 4.9 µM.

With `O=C(OCCN(CCOC(=O)c1ccc(Br)cc1)c1ccc(C(c2c(O)c3ccccc3oc2=O)c2c(O)c3ccccc3oc2=O)cc1)c1ccc(Br)cc1`, half-maximal inhibition (IC50) required 0.96 µM. Consider `O=C(Oc1ccc(C(c2c(O)c3ccccc3oc2=O)c2c(O)c3ccccc3oc2=O)cc1)c1ccc(O)cc1`, for which half-maximal inhibition (IC50) was put at 3.2 µM. `CC(=O)Oc1cc(OC(C)=O)cc(C(=O)Oc2ccc(C(c3c(O)c4ccccc4oc3=O)c3c(O)c4ccccc4oc3=O)cc2)c1` gave an IC50 of 9.3 µM. Regarding `CC(=O)Oc1cccc(C(=O)Oc2ccc(C(c3c(O)c4ccccc4oc3=O)c3c(O)c4ccccc4oc3=O)cc2)c1`, the IC50 is 7.1 µM. `CC(=O)Oc1ccc(C(=O)Oc2ccc(C(c3c(O)c4ccccc4oc3=O)c3c(O)c4ccccc4oc3=O)cc2)c(OC(C)=O)c1` registered an IC50 of 19 µM. `O=C(Oc1ccc(C(c2c(O)c3ccccc3oc2=O)c2c(O)c3ccccc3oc2=O)cc1)c1cccc(O)c1` had an IC50 of 6.1 µM. `O=C(Oc1ccc(C(c2c(O)c3ccccc3oc2=O)c2c(O)c3ccccc3oc2=O)cc1)c1cc(O)ccc1O` returned an IC50 of 25 µM. Same read-out and setting: next, `O=C(/C=C/c1ccc(O)c(O)c1)Oc1ccc(C(c2c(O)c3ccccc3oc2=O)c2c(O)c3ccccc3oc2=O)cc1`: 2.6 µM. Same read-out and setting: next, `Cc1ccc(C(=O)Oc2cc(OC(=O)c3ccc(C)cc3)cc(C(c3c(O)c4ccccc4oc3=O)c3c(O)c4ccccc4oc3=O)c2)cc1`: 0.58 µM; `O=C(Oc1ccc(C(c2c(O)c3ccccc3oc2=O)c2c(O)c3ccccc3oc2=O)cc1)c1ccc(O)c(O)c1`: 1.5 µM; `COc1ccc(/C=C/C(=O)Oc2ccc(C(c3c(O)c4ccccc4oc3=O)c3c(O)c4ccccc4oc3=O)cc2)cc1OC`: 2.6 µM.

`CC(=O)Oc1ccccc1C(=O)Oc1ccc(C(c2c(O)c3ccccc3oc2=O)c2c(O)c3ccccc3oc2=O)cc1` had an IC50 of 27 µM.

`CC(=O)Oc1ccc(C(=O)Oc2ccc(C(c3c(O)c4ccccc4oc3=O)c3c(O)c4ccccc4oc3=O)cc2)cc1` yielded an IC50 of 4.6 µM. `CC(=O)Oc1ccc(OC(C)=O)c(C(=O)Oc2ccc(C(c3c(O)c4ccccc4oc3=O)c3c(O)c4ccccc4oc3=O)cc2)c1`: it took 9.7 µM to reach half-maximal inhibition (IC50).

The compound `CC(=O)Oc1ccc(C(=O)Oc2ccc(C(c3c(O)c4ccccc4oc3=O)c3c(O)c4ccccc4oc3=O)cc2)cc1OC(C)=O` had an IC50 of 1.9 µM. Turning to `O=C(Oc1ccc(C(c2c(O)c3ccccc3oc2=O)c2c(O)c3ccccc3oc2=O)cc1)c1cc(O)cc(O)c1`, the IC50 was 53 µM. As for `O=C(Oc1c(C(c2ccc(O)cc2)c2c(O)c3ccccc3oc2=O)c(=O)oc2ccccc12)c1ccc(O)c(O)c1` (configuration not stated), the IC50 came out at 37 µM.

The next test deals with cAMP-dependent protein kinase (PKA) (Homo sapiens, UniProt P22694+P17612+P22612). Nature of the test: Inhibition of PKA (unknown origin) using Kemptide as substrate incubated for [gamma-32P]-ATP incubated for 5 mins by scintillation counter analysis. In kind it is protein assay.
Consider `O=c1ccc2ccc(O)c(O)c2o1` [DAPHNETIN], for which the IC50 worked out at 9.33 µM.

A further test has as its target Protein kinase C (PKC). Nature of the test: Inhibition of PKC (unknown origin) using acetylated myelin basic protein (4 to 14 residues) as substrate incubated for [gamma-32P]-ATP incubated for 5 mins by scintillation counter analysis. In kind it is protein assay, Homo sapiens.
Consider `O=c1ccc2ccc(O)c(O)c2o1` [DAPHNETIN], for which the IC50 came out at 25.01 µM.

The next test addresses T1, Alpha-glucosidase. Nature of the test: Inhibition of Baker's yeast alpha-glucosidase using pNPG as substrate assessed as release of p-nitrophenol preincubated for 10 mins followed by substrate addition and measured after 30 mins by microplate reader analysis. The class given is protein assay.
For `COc1ccc(NC(=S)Nc2ccc(C(c3c(O)c4ccccc4oc3=O)c3c(O)c4ccccc4oc3=O)cc2)cc1`, the IC50 was determined as 13.5 µM.

For `COc1ccccc1NC(=S)Nc1ccc(C(c2c(O)c3ccccc3oc2=O)c2c(O)c3ccccc3oc2=O)cc1`, the IC50 amounted to 104.62 µM. Take `COc1cccc(NC(=S)Nc2ccc(C(c3c(O)c4ccccc4oc3=O)c3c(O)c4ccccc4oc3=O)cc2)c1`: the IC50 came to 25.31 µM.

Target in another test: not listed separately
Nature of the test: Inhibition of HIV-1 integrase. Further details: species or system Human immunodeficiency virus 1.
With `O=c1oc2ccccc2c(O)c1C(c1ccc(C(c2c(O)c3ccccc3oc2=O)c2c(O)c3ccccc3oc2=O)cc1)c1c(O)c2ccccc2oc1=O`, the concentration for half-maximal inhibition (IC50) was found to be 8 µM.

A further test has as its target DNA polymerase beta (Homo sapiens, UniProt P06746). Nature of the test: Inhibition of DNA polymerase beta (unknown origin).
Consider `O=c1oc2ccccc2c(O)c1C(c1ccc(NC(=S)Nc2ccc([N+](=O)[O-])cc2)cc1)c1c(O)c2ccccc2oc1=O`, for which the midpoint of inhibition, the IC50, lay at 24.7 µM. Take `COc1cc2c(O)c(Cc3ccc4ccc(=O)oc4c3)c(=O)oc2cc1O`: 122 µM corresponded to half-maximal inhibition (IC50).

Take `O=c1ccc2ccc(Cc3c(O)c4cc(O)c(O)cc4oc3=O)cc2o1`: inhibition was half-maximal at 94.8 µM (IC50). `O=c1ccc2ccc(Cc3cc4ccc(O)cc4oc3=O)cc2o1`: the IC50 turned out to be 22.5 µM.

The next test concerns the target T2, Hepatocyte growth factor receptor. Nature of the test: Inhibition of c-Met (unknown origin).
`O=c1cc(O)c2ccc(O)c(O)c2o1` returned an IC50 of 100 µM. The compound `O=c1oc2c(O)c(O)ccc2c(O)c1Cc1c(O)c2ccc(O)c(O)c2oc1=O` gave an IC50 of 151 µM.
